# How the values were obtained:
# Assay in all cases: Test D pre-/postemergence plant response
# Type in all cases: in vivo
# [1] = tested on: dallisgrass (Paspalum dilatatum)
# Excerpt: (§1) Seeds of plant species selected from bermudagrass (Cynodon dactylon), Surinam grass (Brachiaria decumbens), large crabgrass (Digitaria sanguinalis), green foxtail (Setaria viridis), goosegrass (Eleusine indica), johnsongrass (Sorghum halepense), kochia (Kochia scoparia), morningglory (pitted morningglory, Ipomoea lacunosa), nutsedge (purple nutsedge, Cyperus rotundus), ragweed (common ragweed, Ambrosia elatior), black mustard (Brassica nigra), guineagrass (Panicum maximum), dallisgrass (Paspalum dilatatum), barnyardgrass (Echinochloa crus-galli), sandbur (southern sandbur, Cenchrus echinatus), sowthistle (common sowthistle, Sonchus oleraceous), prickly sida (Sida spinosa), Italian ryegrass (Lolium multiflorum), purslane (common purslane, Portulaca oleracea), signalgrass (broadleaf signalgrass, Brachiaria platyphylla), groundsel (common groundsel, Senecio vulgaris), chickweed (common chickweed, Stellaria media), dayflower (Virginia (VA) dayflower, Commelina virginica), bluegrass (annual bluegrass, Poa annua), naked crabgrass (Digitaria nuda), itchgrass (Rottboellia cochinchinensis), quackgrass (Elytrigia repens), field bindweed (Convolvulus arvensis), spanishneedles (Bidens bipinnata), mallow (common mallow, Malva sylvestris) and Russian thistle (Salsola kali), were planted into a blend of loam soil and sand and treated preemergence with test chemicals formulated in a non-phytotoxic solvent mixture which included a surfactant. At the same time, plants from these weed species were treated with postemergence applications of the test chemicals formulated in the same manner. Plants ranged in height from 2 to 18 cm (1- to 4-leaf stage) for postemergence treatments.
# (§2) Treated plants and controls were maintained in a greenhouse for 14 to 21 days, after which time all species were visually evaluated and compared to controls. Plant response ratings, summarized in Table D, are based on a scale of 0 to 100 where 0 is no effect and 100 is complete control. A dash (-) response means no test result.
# [2] = tested on: Russian thistle (Salsola kali); conditions: Postemergence, scale 0 to 100 (0 no effect, 100 complete control)
# Excerpt: as §1, §2
# [3] = tested on: signalgrass (broadleaf signalgrass, Brachiaria platyphylla)
# Excerpt: as §1, §2
# [4] = tested on: green foxtail (Setaria viridis)
# Excerpt: as §1, §2
# [5] = tested on: sowthistle (common sowthistle, Sonchus oleraceous)
# Excerpt: as §1, §2
# [6] = tested on: quackgrass (Elytrigia repens)
# Excerpt: as §1, §2
# [7] = tested on: prickly sida (Sida spinosa)
# Excerpt: as §1, §2
# [8] = tested on: mallow (common mallow, Malva sylvestris)
# Excerpt: as §1, §2
# [9] = tested on: ragweed (common ragweed, Ambrosia elatior)
# Excerpt: as §1, §2
# [10] = tested on: guineagrass (Panicum maximum)
# Excerpt: as §1, §2
# [11] = tested on: barnyardgrass (Echinochloa crus-galli)
# Excerpt: as §1, §2
# [12] = tested on: sandbur (southern sandbur, Cenchrus echinatus)
# Excerpt: as §1, §2
# [13] = tested on: dayflower (Virginia (VA) dayflower, Commelina virginica)
# Excerpt: as §1, §2
# [14] = tested on: bermudagrass (Cynodon dactylon)
# Excerpt: as §1, §2
# [15] = tested on: itchgrass (Rottboellia cochinchinensis)
# Excerpt: as §1, §2
# [16] = tested on: black mustard (Brassica nigra)
# Excerpt: as §1, §2
# [17] = Postemergence, 125 g ai/ha, scale 0 to 100 (0 no effect, 100 complete control)
# [18] = Postemergence, 250 g ai/ha, scale 0 to 100 (0 no effect, 100 complete control)
# [19] = Postemergence, 62 g ai/ha, scale 0 to 100 (0 no effect, 100 complete control)
# [20] = Postemergence, 31 g ai/ha, scale 0 to 100 (0 no effect, 100 complete control)
# [21] = Postemergence, 16 g ai/ha, scale 0 to 100
# [22] = Postemergence, 31 g ai/ha, scale 0 to 100
# [23] = Preemergence, 16 g ai/ha, scale 0 to 100, 0 no effect, 100 complete control
# [24] = Preemergence, 31 g ai/ha, scale 0 to 100 (0 no effect, 100 complete control)
# [25] = Preemergence, 62 g ai/ha, scale 0 to 100
# [26] = Preemergence, 125 g ai/ha, scale 0 to 100
smiles,measurement,setting,value
CCCn1c(-c2ccccc2)ncc(C(=O)C2=C(O)C3CCC(C3)C2=O)c1=O (stereo not drawn) [Compound 226],"Plant response rating, Dallisgrass",[1]; [17],30
same,"Plant response rating, Dallisgrass",[1]; [18],35
same,"Plant response rating, Dallisgrass",[1]; [19],20
same,"Plant response rating, Russian Thistle",[2]; 125 g ai/ha,40
same,"Plant response rating, Russian Thistle",[2]; 250 g ai/ha,70
same,"Plant response rating, Signalgrass",[3]; [17],65
same,"Plant response rating, Signalgrass",[3]; [18],65
same,"Plant response rating, Signalgrass",[3]; [19],40
same,"Plant response rating, Foxtail, Green",[4]; [17],80
same,"Plant response rating, Foxtail, Green",[4]; [18],98
same,"Plant response rating, Foxtail, Green",[4]; [19],70
same,"Plant response rating, Sowthistle",[5]; [17],98
same,"Plant response rating, Sowthistle",[5]; [18],98
same,"Plant response rating, Sowthistle",[5]; [19],98
same,"Plant response rating, Quackgrass",[6]; [17],20
same,"Plant response rating, Quackgrass",[6]; [18],35
same,"Plant response rating, Quackgrass",[6]; [19],0
same,"Plant response rating, Prickly Sida",[7]; [17],70
same,"Plant response rating, Prickly Sida",[7]; [18],75
same,"Plant response rating, Prickly Sida",[7]; [19],65
same,"Plant response rating, Mallow",[8]; [17],50
same,"Plant response rating, Mallow",[8]; [18],65
same,"Plant response rating, Mallow",[8]; [19],50
same,"Plant response rating, Ragweed",[9]; [17],90
same,"Plant response rating, Ragweed",[9]; [18],98
same,"Plant response rating, Ragweed",[9]; [19],90
same,"Plant response rating, Guineagrass",[10]; [17],80
same,"Plant response rating, Guineagrass",[10]; [18],80
same,"Plant response rating, Guineagrass",[10]; [19],80
same,"Plant response rating, Barnyardgrass",[11]; [20],85
same,"Plant response rating, Barnyardgrass",[11]; [17],95
same,"Plant response rating, Barnyardgrass",[11]; [18],95
same,"Plant response rating, Barnyardgrass",[11]; [19],85
same,"Plant response rating, Sandbur",[12]; [17],75
same,"Plant response rating, Sandbur",[12]; [18],75
same,"Plant response rating, Sandbur",[12]; [19],75
same,"Plant response rating, Dayflower, VA",[13]; [18],65
same,"Plant response rating, Dayflower, VA",[13]; [19],50
same,"Plant response rating, Bermudagrass",[14]; [20],90
same,"Plant response rating, Bermudagrass",[14]; [17],95
same,"Plant response rating, Bermudagrass",[14]; [18],98
same,"Plant response rating, Bermudagrass",[14]; [19],95
same,"Plant response rating, Itchgrass",[15]; [17],70
same,"Plant response rating, Itchgrass",[15]; [18],90
same,"Plant response rating, Itchgrass",[15]; [19],70
same,"Plant response rating, Black Mustard",[16]; [20],65
same,"Plant response rating, Black Mustard",[16]; [17],80
same,"Plant response rating, Black Mustard",[16]; [18],85
same,"Plant response rating, Black Mustard",[16]; [19],80
O=C1CCCC(O)=C1C(=O)c1cnc(-c2cccs2)n(-c2ccccc2)c1=O [Compound 66],"Plant response rating, Dallisgrass",[1]; [21],35
same,"Plant response rating, Dallisgrass",[1]; [22],35
same,"Plant response rating, Dallisgrass",[1]; [17],60
same,"Plant response rating, Dallisgrass",[1]; [19],35
same,"Plant response rating, Dallisgrass",[1]; [23],0
same,"Plant response rating, Dallisgrass",[1]; [24],5
same,"Plant response rating, Dallisgrass",[1]; [25],5
same,"Plant response rating, Dallisgrass",[1]; [26],95
same,"Plant response rating, Signalgrass",[3]; [21],0
same,"Plant response rating, Signalgrass",[3]; [22],10
same,"Plant response rating, Signalgrass",[3]; [17],30
same,"Plant response rating, Signalgrass",[3]; [19],30
same,"Plant response rating, Signalgrass",[3]; [23],0
same,"Plant response rating, Signalgrass",[3]; [24],5
same,"Plant response rating, Signalgrass",[3]; [26],5
same,"Plant response rating, Foxtail, Green",[4]; [21],20
same,"Plant response rating, Foxtail, Green",[4]; [22],35
same,"Plant response rating, Foxtail, Green",[4]; [17],80
same,"Plant response rating, Foxtail, Green",[4]; [19],65
same,"Plant response rating, Foxtail, Green",[4]; [23],0
same,"Plant response rating, Foxtail, Green",[4]; [24],0
same,"Plant response rating, Foxtail, Green",[4]; [25],0
same,"Plant response rating, Foxtail, Green",[4]; [26],5
same,"Plant response rating, Sowthistle",[5]; [21],35
same,"Plant response rating, Sowthistle",[5]; [22],65
same,"Plant response rating, Sowthistle",[5]; [17],90
same,"Plant response rating, Sowthistle",[5]; [19],70
same,"Plant response rating, Sowthistle",[5]; [23],0
same,"Plant response rating, Sowthistle",[5]; [24],0
same,"Plant response rating, Sowthistle",[5]; [26],0
same,"Plant response rating, Quackgrass",[6]; [21],0
same,"Plant response rating, Quackgrass",[6]; [22],5
same,"Plant response rating, Quackgrass",[6]; [17],5
same,"Plant response rating, Quackgrass",[6]; [19],5
same,"Plant response rating, Quackgrass",[6]; [23],0
same,"Plant response rating, Quackgrass",[6]; [24],0
same,"Plant response rating, Quackgrass",[6]; [26],0
same,"Plant response rating, Prickly Sida",[7]; [22],98
same,"Plant response rating, Prickly Sida",[7]; [17],98
same,"Plant response rating, Prickly Sida",[7]; [19],98
same,"Plant response rating, Prickly Sida",[7]; [23],0
same,"Plant response rating, Prickly Sida",[7]; [24],0
same,"Plant response rating, Prickly Sida",[7]; [25],5
same,"Plant response rating, Prickly Sida",[7]; [26],90
same,"Plant response rating, Mallow",[8]; [21],25
same,"Plant response rating, Mallow",[8]; [22],30
same,"Plant response rating, Mallow",[8]; [17],60
same,"Plant response rating, Mallow",[8]; [19],60
same,"Plant response rating, Mallow",[8]; [23],0
same,"Plant response rating, Mallow",[8]; [24],0
same,"Plant response rating, Mallow",[8]; [25],5
same,"Plant response rating, Mallow",[8]; [26],75
same,"Plant response rating, Ragweed",[9]; [21],0
same,"Plant response rating, Ragweed",[9]; [22],0
same,"Plant response rating, Ragweed",[9]; [17],5
same,"Plant response rating, Ragweed",[9]; [19],0
same,"Plant response rating, Ragweed",[9]; [23],0
same,"Plant response rating, Ragweed",[9]; [24],0
same,"Plant response rating, Ragweed",[9]; [26],0
same,"Plant response rating, Guineagrass",[10]; [21],5
same,"Plant response rating, Guineagrass",[10]; [22],5
same,"Plant response rating, Guineagrass",[10]; [17],30
same,"Plant response rating, Guineagrass",[10]; [19],10
same,"Plant response rating, Guineagrass",[10]; [23],0
same,"Plant response rating, Guineagrass",[10]; [24],0
same,"Plant response rating, Guineagrass",[10]; [25],0
same,"Plant response rating, Guineagrass",[10]; [26],65
same,"Plant response rating, Barnyardgrass",[11]; [21],35
same,"Plant response rating, Barnyardgrass",[11]; [20],65
same,"Plant response rating, Barnyardgrass",[11]; [17],75
same,"Plant response rating, Barnyardgrass",[11]; [19],70
same,"Plant response rating, Barnyardgrass",[11]; [23],0
same,"Plant response rating, Barnyardgrass",[11]; [24],0
same,"Plant response rating, Barnyardgrass",[11]; [25],5
same,"Plant response rating, Barnyardgrass",[11]; [26],75
same,"Plant response rating, Sandbur",[12]; [22],35
same,"Plant response rating, Sandbur",[12]; [17],90
same,"Plant response rating, Sandbur",[12]; [19],35
same,"Plant response rating, Sandbur",[12]; [23],0
same,"Plant response rating, Sandbur",[12]; [24],5
same,"Plant response rating, Sandbur",[12]; [26],80
same,"Plant response rating, Dayflower, VA",[13]; [21],0
same,"Plant response rating, Dayflower, VA",[13]; [22],0
same,"Plant response rating, Dayflower, VA",[13]; [17],30
same,"Plant response rating, Dayflower, VA",[13]; [19],0
same,"Plant response rating, Dayflower, VA",[13]; [23],0
same,"Plant response rating, Dayflower, VA",[13]; [24],0
same,"Plant response rating, Dayflower, VA",[13]; [25],0
same,"Plant response rating, Dayflower, VA",[13]; [26],5
same,"Plant response rating, Bermudagrass",[14]; [21],5
same,"Plant response rating, Bermudagrass",[14]; [20],50
same,"Plant response rating, Bermudagrass",[14]; [17],65
same,"Plant response rating, Bermudagrass",[14]; [19],65
same,"Plant response rating, Bermudagrass",[14]; [23],0
same,"Plant response rating, Bermudagrass",[14]; [24],0
same,"Plant response rating, Bermudagrass",[14]; [25],5
same,"Plant response rating, Bermudagrass",[14]; [26],5
same,"Plant response rating, Itchgrass",[15]; [21],10
same,"Plant response rating, Itchgrass",[15]; [22],15
same,"Plant response rating, Itchgrass",[15]; [17],40
same,"Plant response rating, Itchgrass",[15]; [19],35
same,"Plant response rating, Itchgrass",[15]; [23],0
same,"Plant response rating, Itchgrass",[15]; [24],0
same,"Plant response rating, Itchgrass",[15]; [25],0
same,"Plant response rating, Itchgrass",[15]; [26],0
same,"Plant response rating, Black Mustard",[16]; [21],0
same,"Plant response rating, Black Mustard",[16]; [20],20
same,"Plant response rating, Black Mustard",[16]; [17],98
same,"Plant response rating, Black Mustard",[16]; [19],50
same,"Plant response rating, Black Mustard",[16]; [23],0
same,"Plant response rating, Black Mustard",[16]; [24],5
same,"Plant response rating, Black Mustard",[16]; [25],35
same,"Plant response rating, Black Mustard",[16]; [26],80

# Reference: US8952024B2, “Herbicidal pyrimidone derivatives” (E I du Pont de Nemours and Company, priority 2009, dated 2015)
